As a reminder, the IC50 is the concentration that gives 50% inhibition. Read a low IC50 as inhibition by little substance.

The results in this text go back to ChEMBL document CHEMBL1147124, “Antigiardial activity of triterpenoids from root bark of Hippocratea excelsa” (J Nat Prod, 2007).

The assay concerns Giardia intestinalis. The assay can be described thus: Antiprotozoal activity against Giardia intestinalis IMSS:0696:1 trophozoites after 48 hrs. In kind it is functional, organism-based. Conditions: Giardia duodenalis.
In the case of `C[C@H]1C(=O)CCC2[C@]3(C)CC[C@@]4(C)C5CC(C)(C)[C@H](O)C[C@]5(C)CC[C@]4(C)C3CC[C@@]21C` (stereo partly specified), half-maximal inhibition (IC50) was put at 19.8 µM.
For `CC1(C)C[C@H]2C3=CC[C@@H]4[C@@]5(C)CCC(=O)C(C)(C)[C@@H]5CC[C@@]4(C)[C@]3(C)CC[C@@]2(C)C[C@@H]1O` the value was 27.4 µM; for `COC(=O)/C=C1\C(C(C)=O)=CC=C2[C@]3(C)CC[C@@]4(C)CC[C@@](C)(C(=O)OC)CC4[C@@]3(C)CC[C@]21C` (stereo partly specified) [DZUNUNCANONE], 22.4 µM; for `COC(=O)[C@]1(C)CC[C@]2(C)CC[C@]3(C)C4=CC=C5C(=CC(=O)C(O)=C5C)[C@]4(C)CC[C@@]3(C)[C@@H]2C1` [PRISTIMERIN], 0.11 µM.
In turn, `CC1=C(O)C(=O)C=C2C1=CC=C1[C@@]2(C)CC[C@@]2(C)[C@@H]3C[C@@H](C)C(=O)C[C@]3(C)CC[C@]12C` [TINGENONE] registered an IC50 of 0.74 µM.
`COC(=O)[C@]1(C)CC[C@]2(C)CC[C@]3(C)C4=CC=C5C(=CC(=O)[C@]6(O)Oc7cc8c(cc7O[C@]56C)C(=O)C=C5[C@@]8(C)CC[C@@]6(C)[C@@H]7C[C@](C)(C(=O)OC)CC[C@]7(C)CC[C@]56C)[C@]4(C)CC[C@@]3(C)[C@@H]2C1` [XUXARINE EBETA] came in with an IC50 of 11.3 µM.
